Counter-ions that a name gives are not always drawn.
Legend:
HSV-1 (Tomioka strain) = assay: Efficacy test by oral administration in HSV-1 infected mice; assay type: in vivo, CDF-1 mouse; parameters: Survival Ratio after 21 days: unit: %; conditions: for Average Survival days / Survival Ratio after 21 days: HSV-1 i.p. infected CDF-1 mice; for Survival Ratio after 21 days: 10 mice per group
Procedure: A 4-week-age male CDF-1 mouse was intraperitoneally infected with HSV-1 (Tomioka strain) in an amount of 2.4 × 10⁵ pfu/mouse. Three hours after the infection, administration of each test compound was started. The test compound was dissolved in 0.2 ml of distilled water for injection use and intragastrically administered via catheter once a day for 5 days in a dose of 0.625, 1.25, or 2.5 µmol/kg/day. Each of the test groups consisted of 10 mice, and the survival ratio after 21 days from the administration and the average survival days were obtained.

[1] = Measurement of oral absorbability (plasma AUC after oral administration); conditions: in vivo, 0.1 mmol/kg in physiological saline, male ICR mouse, plasma concentration of 9-[1'S,2'R-bis(hydroxymethyl)cyclopropan-1'-yl]methylguanine by HPLC, 15 minutes to 4 hours
Procedure: Each of the test compounds was dissolved in 0.2 ml of physiological saline and orally administered to 5-week-age male ICR mouse in a dose of 0.1 mmol/kg. After 15 minutes, 30 minutes, 1 hour, 2 hours, or 4 hours from the administration, blood was collected from three mice, respectively, and centrifuged at 3,000 rpm for 10 minutes to obtain a plasma. A 20 % trichloroacetic acid aqueous solution (100 µl) was added to the plasma (100 µl), and the resulting mixture was shaken and then centrifuged at 8,000 rpm for 1 minutes to obtain a supernatant. The concentration of 9-[1'S,2'R-bis(hydroxymethyl)cyclopropan-1'-yl]methylguanine in the supernatant was measured by HPLC and the area under the blood concentration time curve (AUC) was calculated.

[2] = 0.625 µmol/kg/day intragastrically once a day for 5 days
[3] = 1.25 µmol/kg/day intragastrically once a day for 5 days
[4] = 2.5 µmol/kg/day intragastrically once a day for 5 days

Structure (SMILES) | Average Survival days (HSV-1 (Tomioka strain); [2]) | Survival Ratio after 21 days (HSV-1 (Tomioka strain); [2]) | Average Survival days (HSV-1 (Tomioka strain); [3]) | Survival Ratio after 21 days (HSV-1 (Tomioka strain); [3]) | Average Survival days (HSV-1 (Tomioka strain); [4]) | Survival Ratio after 21 days (HSV-1 (Tomioka strain); [4]) | AUC at 4 h [1] | efficacy (HSV-1 (Tomioka strain); in words, compared with 9-[1'S,2'R-bis(hydroxymethyl)cyclopropan-1'-yl]methylguanine)
Nc1nc2c(ncn2C[C@]2(CO)C[C@H]2CO)c(=O)[nH]1 [9-[1'S,2'R-bis(hydroxymethyl)cyclopropan-1'-yl]methylguanine] | 7.8 ± 1.2 days | 0 | 9.4 ± 1.9 days | 0 | 11.3 ± 3.1 days | 60 | 16 µM·h | –
C[C@H](N)C(=O)OC[C@@H]1C[C@@]1(COC(=O)[C@H](C)N)Cn1cnc2c(=O)[nH]c(N)nc21 [Compound of Example 1, 9-[1'S,2'R-bis(O-L-alanyloxymethyl)cyclopropan-1'-yl]methylguanine trihydrochloride] | 9.7 ± 2.7 days | 40 | 14.3 ± 4.1 days | 60 | – | 100 | – | superior efficacy

Source: patent publication EP0654473A1, “Cyclopropane derivatives and antiviral agents containing the same” (Ajinomoto Co., Inc., priority 1993, dated 1995)
